Measurements from patent US10414811B2, “Protease-resistant lipidated GLP-1 analogs” (MEDIMMUNE LIMITED, priority 2015, dated 2019).
Where two headings read alike, the source gives them in different places. Numbered stars: 1 amine (or outer) side, 2 acyl side, 3 side chain; on linkers, the order of the positions; unused ones are H or OH. Square brackets hold non-standard residues; d marks the D form. Side chains are listed from the residue outwards. Peptide text beside a SMILES is read from it. * marks the point of attachment. C18 diacid = O=C(O)CCCCCCCCCCCCCCCCC(=O)*; γGlu = O=C(O)[C@H](CCC(=O)[*:2])N[*:1]; αMeF = C[C@](N)(Cc1ccccc1)C(=O)O; αMeK = C[C@](N)(CCCCN)C(=O)O; Lauroyl = CCCCCCCCCCCC(=O)*; αMeS = C[C@](N)(CO)C(=O)O; AEEA = NCCOCCOCC(=O)O; Aib = CC(C)(N)C(=O)O

Columns and labels:
Format in all cases: cell-based
[1] = target: T1, human glucagon receptor (GCGR) (Homo sapiens, UniProt P47871); assay: cAMP assay, human GCGR cells
T1 construct: expressed in transfected cells
T1 sequence (P47871 26-477): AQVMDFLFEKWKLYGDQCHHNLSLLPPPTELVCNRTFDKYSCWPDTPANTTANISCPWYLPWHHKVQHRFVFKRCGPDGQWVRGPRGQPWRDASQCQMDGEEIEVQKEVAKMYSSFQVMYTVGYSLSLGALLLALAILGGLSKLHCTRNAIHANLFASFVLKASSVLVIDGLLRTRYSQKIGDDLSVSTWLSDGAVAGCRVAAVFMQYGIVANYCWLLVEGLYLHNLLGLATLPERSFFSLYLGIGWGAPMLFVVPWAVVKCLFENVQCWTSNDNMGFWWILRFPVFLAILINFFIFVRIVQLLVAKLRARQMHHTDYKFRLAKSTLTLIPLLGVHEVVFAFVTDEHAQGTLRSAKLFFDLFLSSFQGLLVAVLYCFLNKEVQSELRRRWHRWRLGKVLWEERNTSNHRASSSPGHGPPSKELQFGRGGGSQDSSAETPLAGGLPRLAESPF
Outline: (§1)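 Peptide-stimulated cAMP measured by two-step HTRF after a 30 min room-temperature incubation with receptor-expressing cells (hGLP-1R, hGIPR at 1×10^5 cells/ml; hGCGR at 2×10^5 cells/ml). Duplicate dilutions; EC50 from 4-parameter logistic fit of % Delta F.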

[2] = target: T2, GLP-1R (INS1e assay) (Rattus norvegicus, UniProt P32301); assay: INS1e assay, cAMP activity at GLP-1R
T2 construct: endogenous in cells; host or cells: INS-1E cells
T2 sequence (P32301 22-463): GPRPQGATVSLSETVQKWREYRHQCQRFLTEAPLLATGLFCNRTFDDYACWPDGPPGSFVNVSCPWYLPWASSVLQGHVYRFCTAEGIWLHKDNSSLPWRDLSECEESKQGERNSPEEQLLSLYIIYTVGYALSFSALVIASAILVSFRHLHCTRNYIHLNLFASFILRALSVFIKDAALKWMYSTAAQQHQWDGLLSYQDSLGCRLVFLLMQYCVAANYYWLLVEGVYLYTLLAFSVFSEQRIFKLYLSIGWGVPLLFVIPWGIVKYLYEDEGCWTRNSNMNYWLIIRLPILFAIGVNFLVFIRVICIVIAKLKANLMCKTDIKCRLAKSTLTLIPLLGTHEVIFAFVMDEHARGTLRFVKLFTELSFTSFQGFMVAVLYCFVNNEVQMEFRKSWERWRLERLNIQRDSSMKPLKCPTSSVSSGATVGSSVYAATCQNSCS
Outline: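 It pairs cAMP-d2 acceptor with anti-cAMP cryptate donor, both prepared 1/20 in conjugate/lysis buffer, applied as a two-step protocol.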

[3] = target: T3, human glucose-dependent insulinotropic peptide receptor (GIPR) (Homo sapiens, UniProt P48546); assay: cAMP assay, human GIPR cells
T3 construct: expressed in transfected cells
T3 sequence (P48546 22-466): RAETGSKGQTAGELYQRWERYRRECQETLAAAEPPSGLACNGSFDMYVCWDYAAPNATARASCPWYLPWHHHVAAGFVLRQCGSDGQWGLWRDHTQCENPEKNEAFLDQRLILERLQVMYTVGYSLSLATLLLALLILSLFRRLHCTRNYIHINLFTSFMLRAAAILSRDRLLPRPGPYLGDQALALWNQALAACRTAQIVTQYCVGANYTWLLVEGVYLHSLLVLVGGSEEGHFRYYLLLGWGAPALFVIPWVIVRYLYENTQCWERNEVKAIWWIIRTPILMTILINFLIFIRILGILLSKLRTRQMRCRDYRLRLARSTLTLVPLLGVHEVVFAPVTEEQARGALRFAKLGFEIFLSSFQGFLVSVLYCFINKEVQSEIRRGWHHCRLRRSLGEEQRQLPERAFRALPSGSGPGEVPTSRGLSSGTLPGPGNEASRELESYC
Outline: as §1

[4] = target: T4, human GLP-1 receptor (GLP-1R) (Homo sapiens, UniProt P43220); assay: cAMP assay, human GLP-1R cells; details: cAMP assay, first determination (n1); read-out: Primary assay EC50 GLP-1R n1
T4 construct: expressed in transfected cells
T4 sequence (P43220 24-463): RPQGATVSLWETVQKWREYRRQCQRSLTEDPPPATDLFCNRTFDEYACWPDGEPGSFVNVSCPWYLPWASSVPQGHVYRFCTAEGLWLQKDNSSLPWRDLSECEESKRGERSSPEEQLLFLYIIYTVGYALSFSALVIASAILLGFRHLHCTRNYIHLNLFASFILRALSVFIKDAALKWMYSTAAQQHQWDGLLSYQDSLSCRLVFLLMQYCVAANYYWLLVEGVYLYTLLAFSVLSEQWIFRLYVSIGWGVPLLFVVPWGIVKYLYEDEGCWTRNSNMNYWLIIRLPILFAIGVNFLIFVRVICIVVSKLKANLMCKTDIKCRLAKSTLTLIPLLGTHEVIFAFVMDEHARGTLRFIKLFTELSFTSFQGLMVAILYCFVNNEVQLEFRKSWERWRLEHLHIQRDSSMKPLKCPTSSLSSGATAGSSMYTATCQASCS
Outline: as §1

[5] = cAMP assay, first determination (n1), read-out: Primary assay EC50 Gluc-R (n1)
[6] = cAMP assay, second determination (n2), read-out: Primary assay EC50 Gluc-R (n2)
[7] = mono-lipidated peptides, mean of n1 and n2, read-out: INS1e assay EC50 Mean pM GLP-1R
[8] = mono-lipidated peptides, replicate n1, read-out: INS1e assay EC50 GLP-1R n1
[9] = mono-lipidated peptides, replicate n2, read-out: INS1e assay EC50 GLP-1R n2
[10] = cAMP assay, first determination (n1), read-out: Primary assay EC50 GIP-R (n1)
[11] = cAMP assay, second determination (n2), read-out: Primary assay EC50 GIP-R (n2)

| Compound | EC50 [1, 5] | EC50 [1, 6] | EC50 [2, 7] | EC50 [2, 8] | EC50 [2, 9] | EC50 [3, 10] | EC50 [3, 11] | EC50 [4] | EC50 ([1]; tris-lipidated peptides, second replicate, read-out: Primary assay EC50 Gluc-R (n2)) | EC50 ([2]; tris-lipidated peptides, mean of n1 and n2, read-out: INS1e assay EC50 Mean pM GLP-1R) | EC50 ([2]; tris-lipidated peptides, replicate n1, read-out: INS1e assay EC50 GLP-1R n1) | EC50 ([2]; tris-lipidated peptides, replicate n2, read-out: INS1e assay EC50 GLP-1R n2) | EC50 ([3]; tris-lipidated peptides, first replicate, read-out: Primary assay EC50 GIP-R (n1)) |
| --- | --- | --- | --- | --- | --- | --- | --- | --- | --- | --- | --- | --- | --- |
| CC[C@H](C)[C@H](NC(=O)[C@H](Cc1ccccc1)NC(=O)[C@H](CCC(=O)O)NC(=O)[C@H](CCCCN)NC(=O)[C@H](C)NC(=O)[C@H](C)NC(=O)[C@H](CCC(N)=O)NC(=O)CNC(=O)[C@H](CCC(=O)O)NC(=O)[C@H](CC(C)C)NC(=O)[C@H](Cc1ccc(O)cc1)NC(=O)[C@H](CO)NC(=O)[C@H](CO)NC(=O)[C@@H](NC(=O)[C@H](CC(=O)O)NC(=O)[C@H](CO)NC(=O)[C@@H](NC(=O)[C@H](Cc1ccccc1)NC(=O)[C@@H](NC(=O)CNC(=O)[C@H](CCC(=O)O)NC(=O)C(C)(C)NC(=O)[C@@H](N)Cc1c[nH]cn1)[C@@H](C)O)[C@@H](C)O)C(C)C)C(=O)N[C@@H](C)C(=O)N[C@@H](Cc1c[nH]c2ccccc12)C(=O)N[C@@H](CC(C)C)C(=O)N[C@H](C(=O)N[C@@H](CCCCN)C(=O)NCC(=O)N[C@@H](CCCNC(=N)N)C(=O)N[C@@H](CCCCNC(=O)COCCOCCNC(=O)COCCOCCNC(=O)CC[C@H](NC(=O)CCCCCCCCCCCCCCCCC(=O)O)C(=O)O)C(N)=O)C(C)C [compound 6] | ≥ 22 nM | ≥ 22 nM | 122 pM | 104 pM | 139 pM | ≥ 22 nM | ≥ 22 nM | 0.0048 nM |  |  |  |  |  |
| CC[C@H](C)[C@H](NC(=O)[C@](C)(Cc1ccccc1)NC(=O)[C@H](CCC(=O)O)NC(=O)[C@](C)(CCCCN)NC(=O)[C@H](CCCCNC(=O)COCCOCCNC(=O)COCCOCCNC(=O)CC[C@H](NC(=O)CCCCCCCCCCCCCCCCC(=O)O)C(=O)O)NC(=O)[C@H](C)NC(=O)[C@H](CCC(=O)O)NC(=O)CNC(=O)[C@H](CCC(=O)O)NC(=O)[C@H](CC(C)C)NC(=O)[C@](C)(Cc1ccccc1)NC(=O)[C@H](CO)NC(=O)[C@](C)(CO)NC(=O)[C@@H](NC(=O)[C@H](CC(=O)O)NC(=O)[C@H](CO)NC(=O)[C@@H](NC(=O)[C@](C)(Cc1ccccc1)NC(=O)[C@H](CO)NC(=O)CNC(=O)[C@H](CCC(=O)O)NC(=O)C(C)(C)NC(=O)[C@@H](N)Cc1c[nH]cn1)[C@@H](C)O)C(C)C)C(=O)N[C@@H](C)C(=O)N[C@@](C)(Cc1ccccc1)C(=O)N[C@H](C(=O)N[C@H](C(=O)N[C@@](C)(CCCCN)C(=O)NCC(=O)NCC(N)=O)C(C)C)C(C)C [compound 110] (H-H[Aib]EGS[αMeF]TSDV[αMeS]S[αMeF]LEGEAK([AEEA-AEEA-γGlu-C18 diacid])[αMeK]E[αMeF]IA[αMeF]VV[αMeK]GG-NH2; N-terminus assumed) | ≥ 25 nM | ≥ 25 nM | 27400 pM | 31600 pM | 23100 pM | ≥ 25 nM | ≥ 25 nM |  |  |  |  |  |  |
| CC[C@H](C)[C@H](NC(=O)[C@](C)(Cc1ccccc1)NC(=O)[C@H](CCC(=O)O)NC(=O)[C@](C)(CCCCN)NC(=O)[C@H](C)NC(=O)[C@H](C)NC(=O)[C@H](CCC(=O)O)NC(=O)[C@H](CCCCNC(=O)COCCOCCNC(=O)COCCOCCNC(=O)CC[C@H](NC(=O)CCCCCCCCCCCCCCCCC(=O)O)C(=O)O)NC(=O)[C@H](CCC(=O)O)NC(=O)[C@H](CC(C)C)NC(=O)[C@](C)(Cc1ccccc1)NC(=O)[C@H](CO)NC(=O)[C@](C)(CO)NC(=O)[C@@H](NC(=O)[C@H](CC(=O)O)NC(=O)[C@H](CO)NC(=O)[C@@H](NC(=O)[C@](C)(Cc1ccccc1)NC(=O)[C@H](CO)NC(=O)CNC(=O)[C@H](CCC(=O)O)NC(=O)C(C)(C)NC(=O)[C@@H](N)Cc1c[nH]cn1)[C@@H](C)O)C(C)C)C(=O)N[C@@H](C)C(=O)N[C@@](C)(Cc1ccccc1)C(=O)N[C@H](C(=O)N[C@H](C(=O)N[C@@](C)(CCCCN)C(=O)NCC(=O)NCC(N)=O)C(C)C)C(C)C [compound 113] (H-H[Aib]EGS[αMeF]TSDV[αMeS]S[αMeF]LEK([AEEA-AEEA-γGlu-C18 diacid])EAA[αMeK]E[αMeF]IA[αMeF]VV[αMeK]GG-NH2; N-terminus assumed) | ≥ 25 nM | ≥ 24.9 nM | 1040 pM | 823 pM | 1260 pM | ≥ 25 nM | ≥ 24.9 nM |  |  |  |  |  |  |
| CC[C@H](C)[C@H](NC(=O)[C@](C)(Cc1ccccc1)NC(=O)[C@H](CCC(=O)O)NC(=O)[C@](C)(CCCCN)NC(=O)[C@H](C)NC(=O)[C@H](C)NC(=O)[C@H](CCC(=O)O)NC(=O)CNC(=O)[C@H](CCC(=O)O)NC(=O)[C@H](CC(C)C)NC(=O)[C@H](CCCCNC(=O)COCCOCCNC(=O)COCCOCCNC(=O)CC[C@H](NC(=O)CCCCCCCCCCCCCCCCC(=O)O)C(=O)O)NC(=O)[C@H](CO)NC(=O)[C@](C)(CO)NC(=O)[C@@H](NC(=O)[C@H](CC(=O)O)NC(=O)[C@H](CO)NC(=O)[C@@H](NC(=O)[C@](C)(Cc1ccccc1)NC(=O)[C@H](CO)NC(=O)CNC(=O)[C@H](CCC(=O)O)NC(=O)C(C)(C)NC(=O)[C@@H](N)Cc1c[nH]cn1)[C@@H](C)O)C(C)C)C(=O)N[C@@H](C)C(=O)N[C@@](C)(Cc1ccccc1)C(=O)N[C@H](C(=O)N[C@H](C(=O)N[C@@](C)(CCCCN)C(=O)NCC(=O)NCC(N)=O)C(C)C)C(C)C [compound 116] | ≥ 26 nM | ≥ 25.6 nM | 1110 pM | 1610 pM | 610 pM | ≥ 26 nM | ≥ 25.6 nM |  |  |  |  |  |  |
| CCCCCCCCCCCC(=O)N[C@@H](CCC(=O)NCCOCCOCC(=O)NCCOCCOCC(=O)NCCCC[C@H](NC(=O)CNC(=O)[C@H](CCC(=O)O)NC(=O)[C@H](CC(C)C)NC(=O)[C@H](CCCCNC(=O)COCCOCCNC(=O)COCCOCCNC(=O)CC[C@H](NC(=O)CCCCCCCCCCC)C(=O)O)NC(=O)[C@H](CO)NC(=O)[C@](C)(CO)NC(=O)[C@@H](NC(=O)[C@H](CC(=O)O)NC(=O)[C@H](CO)NC(=O)[C@@H](NC(=O)[C@](C)(Cc1ccccc1)NC(=O)[C@H](CO)NC(=O)CNC(=O)[C@H](CCC(=O)O)NC(=O)C(C)(C)NC(=O)[C@@H](N)Cc1c[nH]cn1)[C@@H](C)O)C(C)C)C(=O)N[C@@H](C)C(=O)N[C@@H](C)C(=O)N[C@@](C)(CCCCN)C(=O)N[C@@H](CCC(=O)O)C(=O)N[C@@H](Cc1ccccc1)C(=O)N[C@H](C(=O)N[C@@H](C)C(=O)N[C@@H](Cc1ccccc1)C(=O)N[C@@H](CCCCNC(=O)COCCOCCNC(=O)COCCOCCNC(=O)CC[C@H](NC(=O)CCCCCCCCCCC)C(=O)O)C(=O)N[C@H](C(=O)N[C@@H](CCC(=O)O)C(=O)NCC(=O)NCC(N)=O)C(C)C)[C@@H](C)CC)C(=O)O [compound 480] (H-H[Aib]EGS[αMeF]TSDV[αMeS]SK([AEEA-AEEA-γGlu-Lauroyl])LEGK([AEEA-AEEA-γGlu-Lauroyl])AA[αMeK]EFIAFK([AEEA-AEEA-γGlu-Lauroyl])VEGG-NH2) |  |  |  |  |  |  |  |  | 20 nM | 6530 pM | 9370 pM | 3690 pM | 20 nM |
